Experimental data taken from ChEMBL document CHEMBL1201862, “PubChem BioAssay data set” (2004).
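Exposure lasted 48 hours, with cells grown in 96-well plates and compounds tested at five concentrations. GI50: concentration for 50% inhibition of growth.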 The source made the active and inactive calls. No stated cut-off is given here; in the data, active = GI50 up to about 1.1 µM and inactive = higher.

Key:
Assay in all cases: NCI-60 cell line screen, 48 h
A549 = system: A549
ACHN = system: ACHN
DU-145 = system: DU-145
HCT-116 = system: HCT-116
HL-60 = system: HL-60
HT-29 = system: HT-29
Hs-578T = system: Hs-578T
LOX IMVI = system: LOX IMVI
MDA-MB-435 = system: MDA-MB-435
MOLT-4 = system: MOLT-4
Malme-3M = system: Malme-3M
NCI-H226 = system: NCI-H226
NCI-H23 = system: NCI-H23
OVCAR-5 = system: OVCAR-5
PC-3 = system: PC-3
RXF 393 = system: RXF 393
SF-268 = system: SF-268
T47D = system: T47D
UACC-257 = system: UACC-257
UO-31 = system: UO-31

Row | Structure (SMILES) | GI50 (A549) | GI50 (ACHN) | GI50 (DU-145) | GI50 (HCT-116) | GI50 (HL-60) | GI50 (HT-29) | GI50 (Hs-578T) | GI50 (LOX IMVI) | GI50 (MDA-MB-435) | GI50 (MOLT-4) | GI50 (Malme-3M) | GI50 (NCI-H226) | GI50 (NCI-H23) | GI50 (OVCAR-5) | GI50 (PC-3) | GI50 (RXF 393) | GI50 (SF-268) | GI50 (T47D) | GI50 (UACC-257) | GI50 (UO-31)
1 | CCC1(C)NC(c2cnccn2)=NN1c1ccc(Cl)cc1 (stereo not given) | > 100 µM (inactive) | > 100 µM (inactive) | 65.2 µM (inactive) | 66.8 µM (inactive) | 48.8 µM (inactive) | 88.1 µM (inactive) | > 100 µM (inactive) | 35.9 µM (inactive) | > 100 µM (inactive) | 32.7 µM (inactive) | 41.9 µM (inactive) | > 100 µM (inactive) | > 100 µM (inactive) | > 100 µM (inactive) | 65.9 µM (inactive) | 41.7 µM (inactive) | > 100 µM (inactive) | 15.5 µM (inactive) | 21.9 µM (inactive) | > 100 µM (inactive)
2 | Cc1sc2nc3n(c(=O)c2c1C)N=C(c1ccccc1)CS3 | > 100 µM (inactive) | > 100 µM (inactive) | > 100 µM (inactive) | > 100 µM (inactive) | > 100 µM (inactive) | > 100 µM (inactive) | 37.5 µM (inactive) | > 100 µM (inactive) | > 100 µM (inactive) | > 100 µM (inactive) | > 100 µM (inactive) | > 100 µM (inactive) | > 100 µM (inactive) | > 100 µM (inactive) | > 100 µM (inactive) | > 100 µM (inactive) | > 100 µM (inactive) | > 100 µM (inactive) | > 100 µM (inactive) | > 100 µM (inactive)
3 | CCC1=C(CC2NCCc3ccccc32)CC2c3cc(OC)c(OC)cc3CCN2C1 (stereo not given) | 0.343 µM (active) | 0.367 µM (active) | 0.356 µM (active) | 0.307 µM (active) | 0.847 µM (active) | 0.284 µM (active) | 0.44 µM (active) | 0.359 µM (active) | 0.327 µM (active) | 0.276 µM (active) | 0.603 µM (active) | 0.757 µM (active) | 0.94 µM (active) | 0.579 µM (active) | 0.333 µM (active) | 0.635 µM (active) | 0.719 µM (active) | 0.514 µM (active) | 1.02 µM (active) | 0.736 µM (active)
4 | O=c1c(Br)c(-c2ccccc2)[s+]([O-])c2ccccc12 (stereo not given) | 24.2 µM (inactive) | 2.52 µM (inactive) | 14.2 µM (inactive) | 5.9 µM (inactive) | 2.11 µM (inactive) | 13.2 µM (inactive) | 25.1 µM (inactive) | 11.8 µM (inactive) | 4.5 µM (inactive) | 1.22 µM (inactive) | 10.4 µM (inactive) | 15.8 µM (inactive) | 16 µM (inactive) | 21.5 µM (inactive) | 7.78 µM (inactive) | 12.2 µM (inactive) | 16.4 µM (inactive) | 2.8 µM (inactive) | 12.9 µM (inactive) | 12 µM (inactive)
5 | Clc1cccc(Cl)c1C1SCc2nc3ncccc3n21 (stereo not given) | > 100 µM (inactive) | > 100 µM (inactive) | > 100 µM (inactive) | 94.6 µM (inactive) | 60.7 µM (inactive) | > 100 µM (inactive) | > 100 µM (inactive) | > 100 µM (inactive) | 39.4 µM (inactive) | 61.8 µM (inactive) | 55.8 µM (inactive) | 66.8 µM (inactive) | > 100 µM (inactive) | > 100 µM (inactive) | > 100 µM (inactive) | > 100 µM (inactive) | > 100 µM (inactive) | > 100 µM (inactive) | > 100 µM (inactive) | > 100 µM (inactive)
